Target: T1, recombinant human GR (Homo sapiens, UniProt P04150)
T1 construct: purchased Panvera/Invitrogen P2812 (kit P2893)
T1 sequence (P04150 1-777): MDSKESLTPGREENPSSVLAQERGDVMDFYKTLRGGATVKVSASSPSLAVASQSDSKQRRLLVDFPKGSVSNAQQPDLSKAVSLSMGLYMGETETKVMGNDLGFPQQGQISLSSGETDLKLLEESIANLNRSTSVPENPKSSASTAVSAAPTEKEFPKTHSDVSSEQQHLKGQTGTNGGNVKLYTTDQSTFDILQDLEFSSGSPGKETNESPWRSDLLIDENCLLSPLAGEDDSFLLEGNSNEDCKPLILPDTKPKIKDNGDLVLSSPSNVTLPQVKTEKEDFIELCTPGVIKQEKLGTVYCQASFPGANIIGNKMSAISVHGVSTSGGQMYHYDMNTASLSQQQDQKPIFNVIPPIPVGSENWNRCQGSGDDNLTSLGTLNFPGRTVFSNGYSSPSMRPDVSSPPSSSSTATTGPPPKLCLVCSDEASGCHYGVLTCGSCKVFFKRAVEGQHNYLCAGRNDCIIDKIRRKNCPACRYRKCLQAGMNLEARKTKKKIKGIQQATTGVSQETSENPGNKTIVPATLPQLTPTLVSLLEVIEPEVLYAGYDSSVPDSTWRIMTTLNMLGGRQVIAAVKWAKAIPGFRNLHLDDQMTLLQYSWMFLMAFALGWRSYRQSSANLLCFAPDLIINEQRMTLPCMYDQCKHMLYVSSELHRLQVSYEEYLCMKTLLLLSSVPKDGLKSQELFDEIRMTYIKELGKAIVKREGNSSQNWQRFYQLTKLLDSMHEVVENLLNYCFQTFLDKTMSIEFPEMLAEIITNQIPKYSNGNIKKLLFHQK
Assay: Human Glucocorticoid Receptor (GR) Assay, fluorescence polarization
Assay type: binding
Settings: GS Red tracer, incubated 2 h at r.t., XLfit model 205, read-out: GRhuFL_FP_v2 Mean IC50
Experimental: Human Glucocorticoid Receptor (GR) Assay
The assay is based on a commercial kit from Panvera/Invitrogen (Part number P2893). The assay technology is fluorescence polarization. […] The GR and Stabilizing Peptide reagents are stored at −70° C. while the GS Red is stored at −20° C. Also included in the kit are 1M DTT (Panvera, Part number P2325, stored at −20° C.) and GR Screening buffer 10× (Panvera, Part number P2814, stored at −70° C. initially but once thawed stored at r.t.). Avoid repeated freeze/thaws for all reagents. The GR Screening buffer 10× comprises 100 mM potassium phosphate, 200 mM sodium molybdate, 1 mM EDTA and 20% DMSO.
0% control was 100% DMSO and 100% control was […] Dexamethasone. Background solution (8 μL; assay buffer 10×, Stabilizing Peptide, DTT and ice cold MQ water) was added to the background wells. GS Red solution (7 μL; assay buffer 10×, Stabilizing Peptide, DTT, GS Red and ice cold water) was added to all wells except background wells. GR solution (7 μL; assay buffer 10×, Stabilizing Peptide, DTT, GR and ice cold water) was added to all wells. The plate was sealed and incubated in a dark at r.t. for 2 h.

IC50 | SMILES
24 nM | COCC(=O)N[C@@H](CO)C(Oc1ccc2c(cnn2-c2ccc(F)cc2)c1)c1cccc(F)c1 (mixture of isomers) [Example 113, N-[(1S)-2-(3-Fluorophenyl)-2-{[1-(4-fluorophenyl)-1H-indazol-5-yl]oxy}-1-(hydroxymethyl)ethyl]-2-methoxyacetamide]
89 nM | C[C@H](NC(=O)C(F)(F)F)[C@H](COc1ccccc1)Oc1ccc2c(cnn2-c2ccc(F)cc2)c1 (racemic) [Example 70, 2,2,2-Trifluoro-N-[(2RS,3SR)-3-[1-(4-fluorophenyl)indazol-5-yl]oxy-4-phenoxy-butan-2-yl]acetamide]
3.8 nM | C[C@H](NC(=O)C(F)(F)F)[C@H](Oc1cc2cnn(-c3ccc(F)cc3)c2cc1Cl)c1ccc(F)cc1 (racemic) [Example 99, N-[(1RS,2SR)-1-[6-chloro-1-(4-fluorophenyl)indazol-5-yl]oxy-1-(4-fluorophenyl)propan-2-yl]-2,2,2-trifluoro-acetamide]
9.2 nM | CC(=O)NC(C)C(Oc1cc2cnn(-c3ccc(F)cc3)c2cc1Cl)c1ccc(F)cc1 (racemic) [Example 100, N-[(1RS,2SR)-1-[6-chloro-1-(4-fluorophenyl)indazol-5-yl]oxy-1-(4-fluorophenyl)propan-2-yl]acetamide]
1.7 nM | C[C@H](NC(=O)C(F)(F)F)[C@@H](COc1ccccc1)Oc1ccc2c(cnn2-c2ccc(F)cc2)c1 (single isomer, unassigned) [Example 68, 2,2,2-Trifluoro-N-[(2S*,3S*)-3-[1-(4-fluorophenyl)indazol-5-yl]oxy-4-phenoxy-butan-2-yl]acetamide]
76 nM | C[C@@H](NC(=O)C(F)(F)F)[C@H](COc1ccccc1)Oc1ccc2c(cnn2-c2ccc(F)cc2)c1 (single isomer, unassigned) [Example 69, 2,2,2-trifluoro-N-[2R*,3R*-3-[1-(4-fluorophenyl)indazol-5-yl]oxy-4-phenoxy-butan-2-yl]acetamide]
15 nM | CC(=O)N[C@@H](C)[C@H](Oc1cc2cnn(-c3ccc(F)cc3)c2cc1Cl)c1ccc(F)cc1 (single isomer, unassigned) [Example 101, N-[(1S*,2R*)-1-[6-chloro-1-(4-fluorophenyl)indazol-5-yl]oxy-1-(4-fluorophenyl)propan-2-yl]acetamide]
2.5 nM | CC(=O)N[C@@H](C)[C@H](Oc1cc2cnn(-c3ccc(F)cc3)c2cc1Cl)c1ccc(F)cc1 (single isomer, unassigned) [Example 102, N-[(1R*,2S*)-1-[6-chloro-1-(4-fluorophenyl)indazol-5-yl]oxy-1-(4-fluorophenyl)propan-2-yl]acetamide]
97 nM | CC(C)(C)C(=O)NC(C(Oc1ccc2c(cnn2-c2ccc(F)cc2)c1)c1ccccc1)C(F)(F)F (single isomer, unassigned) [Example 147D1E1, N-(1,1,1-trifluoro-3-(1-(4-fluorophenyl)-1H-indazol-5-yloxy)-3-phenylpropan-2-yl)pivalamide]
24 nM | CC(C)(C)C(=O)NC(C(Oc1ccc2c(cnn2-c2ccc(F)cc2)c1)c1ccccc1)C(F)(F)F (single isomer, unassigned) [Example 147D1E2, N-(1,1,1-trifluoro-3-(1-(4-fluorophenyl)-1H-indazol-5-yloxy)-3-phenylpropan-2-yl)pivalamide]
7.4 nM | CC(C)(C)C(=O)NC(C(Oc1ccc2c(cnn2-c2ccc(F)cc2)c1)c1ccccc1)C(F)(F)F (single isomer, unassigned) [Example 147D2E1, N-(1,1,1-trifluoro-3-(1-(4-fluorophenyl)-1H-indazol-5-yloxy)-3-phenylpropan-2-yl)pivalamide]
12 nM | CC(C)(C)C(=O)NC(C(Oc1ccc2c(cnn2-c2ccc(F)cc2)c1)c1ccccc1)C(F)(F)F (single isomer, unassigned) [Example 147D2E2, N-(1,1,1-trifluoro-3-(1-(4-fluorophenyl)-1H-indazol-5-yloxy)-3-phenylpropan-2-yl)pivalamide]
3.7 nM | Cc1cc(C)c([C@@H](Oc2ccc3c(cnn3-c3ccc(F)cc3)c2)[C@H](C)NC(=O)C(C)(C)C)cc1C (stereo in doubt) [Example 267, N-[(1R,2S)-1-[1-(4-fluorophenyl)indazol-5-yl]oxy-1-(2,4,5-trimethylphenyl)propan-2-yl]-2,2-dimethyl-propanamide]
3.1 nM | COc1ccc(F)cc1[C@@H](Oc1ccc2c(cnn2-c2ccc(F)cc2)c1)[C@H](C)NC(=O)C1(C)CC1 (stereo in doubt) [Example 268, N-[(1R,2S)-1-(5-fluoro-2-methoxy-phenyl)-1-[1-(4-fluorophenyl)indazol-5-yl]oxy-propan-2-yl]-1-methyl-cyclopropane-1-carboxamide]
3.2 nM | CCC(=O)N[C@@H](C)[C@H](Oc1ccc2c(cnn2-c2ccc(F)cc2)c1)c1ccccc1 [Example 3, N-((1S,2R)-2-{[1-(4-fluorophenyl)-1H-indazol-5-yl]oxy}-1-methyl-2-phenylethyl)propanamide]
5.9 nM | COC(=O)N[C@@H](C)[C@H](Oc1ccc2c(cnn2-c2ccc(F)cc2)c1)c1ccccc1 [Example 4, Methyl ((1S,2R)-2-{[1-(4-fluorophenyl)-1H-indazol-5-yl]oxy}-1-methyl-2-phenylethyl)carbamate]
2.1 nM | C[C@H](NC(=O)C(C)(C)O)[C@H](Oc1ccc2c(cnn2-c2ccc(F)cc2)c1)c1ccccc1 [Example 5, N-[(1R,2S)-1-[1-(4-fluorophenyl)indazol-5-yl]oxy-1-phenyl-propan-2-yl]-2-hydroxy-2-methyl-propanamide]
2 nM | COCC(=O)N[C@@H](C)[C@H](Oc1ccc2c(cnn2-c2ccc(F)cc2)c1)c1ccc(SC)cc1 [Example 9, N-[(1R,2S)-1-[1-(4-fluorophenyl)indazol-5-yl]oxy-1-(4-methylsulfanylphenyl)propan-2-yl]-2-methoxy-acetamide]
2.4 nM | CSc1ccc([C@@H](Oc2ccc3c(cnn3-c3ccc(F)cc3)c2)[C@H](C)NC(=O)COC(C)=O)cc1 [Example 10, N-[(1R,2S)-1-[1-(4-fluorophenyl)indazol-5-yl]oxy-1-(4-methylsulfanylphenyl)propan-2-yl]carbamoylmethyl acetate]
2.1 nM | CSc1ccc([C@@H](Oc2ccc3c(cnn3-c3ccc(F)cc3)c2)[C@H](C)NC(=O)CO)cc1 [Example 11, N-[(1R,2S)-1-[1-(4-fluorophenyl)indazol-5-yl]oxy-1-(4-methylsulfanylphenyl)propan-2-yl]-2-hydroxy-acetamide]
6.8 nM | C[C@H](NC(=O)C(F)(F)F)[C@H](Oc1ccc2c(cnn2-c2ccc(F)cc2)c1)c1ccc(SC2CC2)cc1 [Example 15, N-[(1R,2S)-1-(4-cyclopropylsulfanylphenyl)-1-[1-(4-fluorophenyl)indazol-5-yl]oxy-propan-2-yl]-2,2,2-trifluoro-acetamide]
2.4 nM | C[C@H](NC(=O)CO)[C@H](Oc1ccc2c(cnn2-c2ccc(F)cc2)c1)c1ccccc1 [Example 16, N-[(1R,2S)-1-[1-(4-fluorophenyl)indazol-5-yl]oxy-1-phenyl-propan-2-yl]-2-hydroxy-acetamide]
3.2 nM | C[C@H](NC(=O)CO)[C@H](Oc1ccc2c(cnn2-c2ccc(F)cc2)c1)c1ccc2ccccc2c1 [Example 21, N-[(1R,2S)-1-[1-(4-fluorophenyl)indazol-5-yl]oxy-1-naphthalen-2-yl-propan-2-yl]-2-hydroxy-acetamide]
4.7 nM | CCc1cccc([C@@H](Oc2ccc3c(cnn3-c3ccc(F)cc3)c2)[C@H](C)NC(=O)C(F)(F)F)c1 [Example 22, N-[(1R,2S)-1-(3-ethylphenyl)-1-[1-(4-fluorophenyl)indazol-5-yl]oxy-propan-2-yl]-2,2,2-trifluoro-acetamide]
3.2 nM | CCc1cccc([C@@H](Oc2ccc3c(cnn3-c3ccc(F)cc3)c2)[C@H](C)NC(=O)CO)c1 [Example 23, N-[(1R,2S)-1-(3-ethylphenyl)-1-[1-(4-fluorophenyl)indazol-5-yl]oxy-propan-2-yl]-2-hydroxy-acetamide]
